Laboratory results as given in article PMC7466280 (Cell, 2020).
Read-outs that look alike come from different tables or passages of the source.

What was measured:
[1] = system: C57BL/6J mice; assay: Oral SBI-553 modulation of PD149163-induced hypothermia and hypoactivity; format: in vivo, mouse; settings: SBI-553 10, 30, 100 mg/kg p.o. 30 min prior to PD149163 i.p.
[2] = system: C57BL/6J mice; assay: Contact righting test; format: in vivo, mouse; settings: PD149163 i.p. 120 min, SBI-553 i.p. (up to 30 mg/kg) 30 min prior to testing
[3] = system: C57BL/6J mice; assay: Methamphetamine conditioned place preference; settings: 12 mg/kg i.p. 15 min prior to test
[4] = molecular target: T1, NTSR1 (Homo sapiens, UniProt P30989); assay: Radioligand binding to NTSR1-containing HEK293T cell membranes
[5] = molecular target: T1, NTSR1; assay: Confocal β-arrestin2 translocation assay in U2OS cells; format: cell-based; settings: for β-arrestin2 translocation: NTSR1-expressing U2OS cells, ligand alone
[6] = system: β-arrestin2 KO mice; format: in vivo, mouse; settings: 12 mg/kg i.p.; for cocaine-induced hyperlocomotion: cocaine 30 mg/kg i.p.
[7] = molecular target: T1, NTSR1; assay: Apo-aequorin calcium assay; format: cell-based; settings: for effect on NTS-induced Ca2+ mobilization: in combination with NTS (10 nM); for Ca2+ mobilization: ligand alone
[8] = molecular target: T1, NTSR1; assay: BRET β-arrestin2 recruitment assay in HEK293T cells; format: cell-based
[9] = system: C57BL/6J mice; assay: Stimulant-induced hyperlocomotion in the open field; format: in vivo, mouse; settings: 12 mg/kg i.p.
[10] = molecular target: T1, NTSR1; assay: NTSR1 internalization assay; format: cell-based
[11] = system: C57BL/6J mice; assay: Blood pressure measurement; format: in vivo, mouse; settings: SBI-553 12 mg/kg i.p.; PD149163 0.3 mg/kg i.p.; 60 minutes post-treatment
[12] = system: C57BL/6J mice; assay: Intravenous cocaine self-administration; format: in vivo, mouse
[13] = molecular target: T1, NTSR1; assay: Gq protein activation by TGFα shedding assay; format: cell-based; settings: for effect on NTS-induced Gq activation: in combination with NTS; for Gq activation: ligand alone
[14] = molecular target: T1, NTSR1; assay: IP3 BRET assay; format: cell-based; settings: for effect on NTS-induced IP3 production: in combination with NTS; for IP3 generation: ligand alone, SBI-553 10 μM, SR142948A 10 μM
[15] = system: C57BL/6J mice; assay: Horizontal wire test; format: in vivo, mouse; settings: PD149163 i.p. 120 min, SBI-553 i.p. (up to 30 mg/kg) 30 min prior to testing
[16] = molecular target: T1, NTSR1; assay: Phosphorylated ERK detection by western blot; format: cell-based
[17] = system: C57BL/6J mice; assay: Core body temperature measurement; format: in vivo, mouse; settings: PD149163 0.1 – 1 mg/kg i.p.; SBI-553 2–30 mg/kg i.p.
[18] = system: DAT KO mice; assay: L-DOPA-induced restoration of locomotion in dopamine depleted DAT KO mice; format: in vivo, mouse; settings: 12 mg/kg i.p., AMPT dopamine-depleted DAT KO mice
[19] = molecular target: T1, NTSR1; assay: Phosphorylated NTSR1 detection by western blot; format: cell-based; settings: NTSR1-expressing HEK293T cells; NTS 10 nM, SBI-553 10 μM, SR142948A 10 μM
[20] = [3H]NTS saturation binding with SBI-553 0.01 – 10 μM
[21] = low-concentration NTS, maximal levels not altered
[22] = 12 mg/kg i.p., cocaine 0.1 mg/kg/infusion
[23] = HEK293T cells expressing human NTSR1, SBI-553 10 μM, SR142948A 10 μM

T1 sequence (P30989 whole entry): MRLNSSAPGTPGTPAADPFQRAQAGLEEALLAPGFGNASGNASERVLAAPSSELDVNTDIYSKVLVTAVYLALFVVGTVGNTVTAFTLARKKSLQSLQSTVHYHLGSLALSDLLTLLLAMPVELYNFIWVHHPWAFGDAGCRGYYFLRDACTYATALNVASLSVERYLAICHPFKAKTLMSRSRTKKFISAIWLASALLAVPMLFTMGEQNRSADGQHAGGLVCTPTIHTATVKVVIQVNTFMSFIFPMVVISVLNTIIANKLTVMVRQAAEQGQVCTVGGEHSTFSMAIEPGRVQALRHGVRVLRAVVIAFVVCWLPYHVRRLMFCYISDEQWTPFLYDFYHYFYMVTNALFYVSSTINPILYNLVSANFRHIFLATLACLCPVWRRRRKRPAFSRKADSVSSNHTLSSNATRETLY

COc1ccccc1C1CCN(c2nc(C3(F)CC3)nc3ccc(N(C)CCO)cc23)CC1 [SBI-553]
PD149163-induced reduction in core body temperature [1]: dose-dependently attenuated | PD149163-induced reduction in horizontal activity in the open field [1]: dose-dependently attenuated | righting reflex [2]: failed to influence | expression of methamphetamine conditioned place preference [3]: blocked the expression of methamphetamine conditioned place preference | effect on total [3H]NTS binding ([4]; 5 nM [3H]NTS, 10 μM unlabeled ligand): increased total [^3H]NTS binding | increase of NTS affinity for NTSR1 (Kd) [4, 20]: up to 3.9 fold | increase of number of available [3H]NTS binding sites (Bmax) [4, 20]: up to 3.3 fold | β-arrestin2 translocation in U2OS cells lacking NTSR1 ([5]; NTS 200 nM, SBI-553 7.5 μM, 40 min): Neither NTS nor SBI-553 treatment stimulated β-arrestin2 translocation | β-arrestin2 translocation [5]: stimulated β-arrestin2 translocation to the plasma membrane | effect of pretreatment on NTS-induced β-arrestin2 translocation [5, 21]: enhanced | methamphetamine-induced hyperlocomotion ([6]; A2aR-Cre animals (deletion in striatal D2R-expressing neurons)): no SBI-553 effects were observed | methamphetamine-induced hyperlocomotion ([6]; D1RCre animals (β-arrestin2 deletion in D1R-expressing neurons)): effectively reduced | methamphetamine-induced hyperlocomotion ([6]; D2R-Cre mice (β-arrestin2 deletion in D2R-expressing neurons)): failed to affect locomotion | methamphetamine-induced hyperlocomotion ([6]; DAT-Cre mice (deletion in midbrain D2R-expressing neurons)): reduced the methamphetamine-induced hyperlocomotion | cocaine-induced hyperlocomotion ([6]; WT mice on C57BL/6J background): decrease | methamphetamine-induced hyperlocomotion ([6]; WT mice on C57BL/6J background, methamphetamine 2 mg/kg i.p.): decrease | cocaine-induced hyperlocomotion ([6]; global β-arrestin2 knockout mice): a significant reduction in locomotion was absent | methamphetamine-induced hyperlocomotion ([6]; global β-arrestin2 knockout mice, methamphetamine 2 mg/kg i.p.): a significant reduction in locomotion was absent | methamphetamine-induced hyperlocomotion ([6]; β-arrestin2 f/f Cre negative littermate controls): effectively reduced | effect on NTS-induced Ca2+ mobilization [7]: attenuated | Ca2+ mobilization [7]: neither SBI-553 nor SR142948A stimulated | β-arrestin2 recruitment to NTSR1 ([8]; ligand alone): stimulated β-arrestin2 recruitment | effect of pretreatment on NTS-induced β-arrestin2 recruitment to NTSR1 ([8]; low-concentration NTS): enhanced | locomotor response vs vehicle in non-stimulant exposed animals [9]: comparable | cocaine-induced hyperlocomotion ([9]; cocaine 30 mg/kg i.p.): attenuate cocaine-induced hyperlocomotion | methamphetamine-induced hyperlocomotion ([9]; methamphetamine 2 mg/kg): reduced | NTSR1 internalization ([10]; ligand alone): stimulated NTSR1 internalization | effect of pretreatment on NTS-induced NTSR1 internalization [10, 21]: enhanced | peak systolic pressure vs vehicle [11]: no differences | lever discrimination (percent responses at active and inactive levers) ([12]; 12 mg/kg i.p., 3-day test): lever discrimination was unchanged | activity at the inactive lever [12, 22]: unchanged across treatments | cocaine intake, level of the vehicle control [12, 22]: less than 20% | latency to initiate lever responding [12, 22]: increased the latency to initiate lever responding | percent of lever responses during the post-reinforcement cue period [12, 22]: reduced the percent of lever responses that occurred during the post-reinforcement cue period | cumulative self-administered cocaine reinforcements ([12]; 12 mg/kg i.p., cocaine 0.1 mg/kg/infusion, FR4, 60 min session): fewer cumulative self-administered reinforcements between 20 and 60 min | total and active lever responses ([12]; 12 mg/kg i.p., cocaine 0.1 mg/kg/infusion, relative to Vehicle and No Treatment): significantly suppressed total and active lever responses | cocaine self-administration at the highest cocaine dose ([12]; SBI-553 2, 6, 12 mg/kg i.p., cocaine 1 mg/kg/infusion): No change in self-administration | lever accuracy ([12]; SBI-553 2, 6, 12 mg/kg i.p., cocaine 0.1-1 mg/kg/infusion): not altered by SBI-553 treatment | cocaine self-administration dose-response ([12]; SBI-553 6, 12 mg/kg, cocaine 0.1, 0.3, 0.5 mg/kg/infusion): greater efficacy at lower cocaine infusion doses | effect on NTS-induced Gq activation [13]: attenuated | Gq activation [13]: neither SBI-553 nor the antagonist SR142948A had any effect | effect on NTS-induced IP3 production [14]: attenuated | IP3 generation [14]: neither SBI-553 nor SR142948A stimulated | wire-hang test, latency to grasp the wire [15]: failed to influence | pERK generation ([16]; HEK293T cells expressing human NTSR1, ligand alone, NTS 10 nM, SBI-553 10 μM): failed to elicit pERK generation | effect of pretreatment on NTS-induced pERK [16, 23]: blunted the early sharp peak in pERK | NTS-induced pERK, NTS alone vs NTS in combination with SBI-553 ([16]; HEK293 cells lacking the Gq/11 protein (Gq-null)): comparable pERK time courses | effect of pretreatment on NTS-induced pERK ([16]; β-arrestin1/2-null HEK293 cells): blocked in its entirety | core body temperature [17]: no effect on core body temperature | L-DOPA-induced restoration of locomotion [18]: attenuated | NTSR1 phosphorylation (phosphothreonine blot) [19]: resulted in NTSR1 phosphorylation

COc1cccc(OC)c1-c1cc(C(=O)NC2(C(=O)O)C3CC4CC(C3)CC2C4)nn1-c1ccc(C(=O)N(C)CCCN(C)C)cc1C(C)C (stereo not drawn) [SR142948A, reference compound]
displacement of [3H]SBI-553 from NTSR1 ([4]; 100 nM [3H]SBI-553, 10 μM unlabeled competitor, YOx beads): not displaced | block of NTS- and SBI-553-induced β-arrestin2 translocation ([5]; NTS 5 nM or SBI-553 10 μM): antagonized NTS-induced, but not SBI-553-induced | β-arrestin2 translocation [5]: without effect | effect on NTS-induced Ca2+ mobilization [7]: attenuated | Ca2+ mobilization [7]: neither SBI-553 nor SR142948A stimulated | block of NTS- and SBI-553-induced β-arrestin2 recruitment to NTSR1 [8]: antagonized NTS-induced, but not SBI-553-induced | block of NTS- and SBI-553-induced NTSR1 internalization ([10]; NTS 10 nM or SBI-553 10 μM): antagonized NTS-induced, but not SBI-553-induced | effect on NTS-induced Gq activation [13]: attenuated | Gq activation [13]: neither SBI-553 nor the antagonist SR142948A had any effect | effect on NTS-induced IP3 production [14]: attenuated | IP3 generation [14]: neither SBI-553 nor SR142948A stimulated | effect of pretreatment on NTS-induced pERK [16, 23]: abolished
